Data from article PMC11314410, “Synthesis and Anti-Trypanosoma cruzi Activity of New Pyrazole-Thiadiazole Scaffolds” (Molecules, 2024).
Read-outs that look alike come from different tables or passages of the source.

Columns and labels:
[1] = test system: Trypomastigotes of T. cruzi (Dm28c-Luc); assay: microbe, parasite or virus in culture; assay type: cell-based, Trypanosoma cruzi; details: for IC50 / IC90: Trypanosoma cruzi, Dm28c-Luc, 24 h treatment; for IC50: 24 h, mean ± SD, read-out: Anti-T. cruzi Activity Trypomastigotes IC50; for IC90: read-out: Anti-T. cruzi Activity Trypomastigotes IC90
Description: (§1) Genetically modified T. cruzi parasites, of clone Dm28c (TcI) expressing the firefly luciferase enzyme gene (Dm28c-Luc), were kindly provided by Dr. Cristina Henriques. T. cruzi Dm28c-Luc was maintained in a Vero cell cultivated in RPMI 1640 medium supplemented with 10% FBS. At 4-day post-infection (dpi), trypomastigotes, released in the cell culture supernatant, were harvested, followed by sedimentation (4000 rpm/20 min/4 °C) and quantification in a Neubauer chamber. Isolated trypomastigotes were used in the phenotypic screening assays as well as the antiparasitic activity in 3D cardiac microtissues, recovery (washout), and drug combination assays.
Drug screening was performed against clinically relevant forms of T. cruzi (amastigotes and trypomastigotes). Trypomastigotes, Dm28c-Luc (1 × 10^6 parasites/well), were added to 96-well plates and incubated with pyrazole-thiadiazole derivatives or Bz (100–0.41 µM). After 24 h of treatment (37 °C), the viability of the parasites was analyzed by adding a D-Luciferin solution (300 µg/mL) and luminescence was measured in the Glomax microplate reader.

[2] = test system: Intracellular amastigotes of T. cruzi (Dm28c-Luc); assay: microbe, parasite or virus in culture; assay type: cell-based, Trypanosoma cruzi; details: for IC50 / IC90: Trypanosoma cruzi; for IC90: read-out: Anti-T. cruzi Activity Intracellular Amastigotes IC90
Description: as §1
The activity of pyrazole-thiadiazole derivatives against intracellular amastigotes was evaluated in 24 h-T. cruzi infected Vero cell cultures (1.5 × 10^4 cells/well) at a 10:1 ratio. The cultures were washed and incubated with serial dilutions of the derivatives or Bz (100–0.41 µM). Drug treatment was carried out for 72 h at 37 °C and the parasite viability was determined by luminescence readout after D-Luciferin substrate addition (300 µg/mL). The reading was performed in the Glomax reader. The cell cultures incubated with the culture medium containing dimethylsulphoxide (DMSO; concentration ≤ 1%) were used as the […]. The concentrations required to inhibit parasite viability by 50% (IC50) and 90% (IC90) were calculated using Prism GraphPad software (version 8.2.1). The selectivity index (SI), which measures the window between cytotoxicity (CC50) and anti-T. cruzi activity (IC50), was calculated as CC50/IC50. A minimum of 3 independent assays in duplicate were performed.

[3] = Toxicity in mammalian cells (CellTiter Glo, 72 h); assay type: cell-based; details: African green monkey, Vero cells; 72 h, ATP levels; read-out: Cytotoxicity Vero Cells CC50
Description: Vero cell cultures grown in RPMI 1640 medium containing 10% fetal bovine serum (FBS) were cultured at 37 °C in a humidified atmosphere of 5% CO2 [82]. The cultures were used for drug screening assays and to obtain culture-derived trypomastigotes of T. cruzi.
Vero cells (1.5 ×10^4 cells/well), cultivated for 24 h at 37 °C in white 96-well plates with clear bottoms, were used to assess the toxicity of the pyrazole-thiadiazole derivatives (series 1 and 2). After washing, the cells were incubated for 72 h at 37 °C with different drug concentrations (500–1.95 μM). Cell viability was measured by adding 20 μL/well of CellTiter Glo reagent (Promega Corporation, Madison, WI, USA). This cell viability kit generates a luminescent signal proportional to the amount of ATP. The luminescence readout was performed using the Glomax Microplate Reader (Promega Corporation, Madison, WI, USA). Thus, the 50% cytotoxicity concentration (CC50), which reduces the cell viability by 50% (CC50), was calculated with Prism GraphPad software (version 8.2.1).

[4] = Vero, read-out: Intracellular Amastigotes pIC50 (converted)
[5] = Dm28c-Luc in Vero cells, 72 h treatment, mean ± SD, read-out: Anti-T. cruzi Activity Intracellular Amastigotes IC50
[6] = Dm28c-Luc in Vero cells, 72 h treatment, mean ± SD

Row | SMILES | Trypomastigotes SI (CC50 of Vero cells/IC50 of trypomastigotes) [1] | IC50 [1] [µM] | IC90 [1] [µM] | Intracellular Amastigotes SI (CC50 of Vero cells/IC50 of intracellular amastigotes) [2] | IC50 [2, 4] [µM] | IC50 [2, 5] [µM] | IC90 [2, 6] [µM] | CC50 at 72 h [3] [µM] | melting point [°C]
1 | Nc1nnc(-c2cnn(-c3ccccc3)c2)s1 [1a, 5-Amino-2-(1-phenyl-1H-pyrazol-4-yl)-1,3,4-thiadiazole] | >5 | > 100 | > 100 | >7.49 | 69.2 | 68.6 ± 1.03 | > 70 | > 500 | 289 to 291
2 | Nc1nnc(-c2cnn(-c3cccc(Cl)c3)c2)s1 [1b, 5-Amino-2-(1-(3-chlorophenyl)-1H-pyrazol-4-yl)-1,3,4-thiadiazole] | >5 | > 100 | > 100 | >7.73 | 67.6 | 68.1 ± 2.99 | > 70 | > 500 | 310 to 311
3 | Nc1nnc(-c2cnn(-c3cc(Cl)cc(Cl)c3)c2)s1 [1d, 5-Amino-2-(1-(3,5-dichlorophenyl)-1H-pyrazol-4-yl)-1,3,4-thiadiazole] | >5 | > 100 | > 100 | >8.29 | 58.9 | 58.7 ± 12.3 | > 70 | > 500 | 283 to 285
4 | Nc1nnc(-c2cnn(-c3ccc(Cl)c(Cl)c3)c2)s1 [1e, 5-Amino-2-(1-(3,4-dichlorophenyl)-1H-pyrazol-4-yl)-1,3,4-thiadiazole] | >5 | > 100 | > 100 | >25.64 | 18.6 | 18.8 ± 2.28 | 40.4 ± 13.3 | > 500 | 313 to 315
5 | Nc1nnc(-c2cnn(-c3ccc(Cl)cc3)c2)s1 [1f, 5-Amino-2-(1-(4-chlorophenyl)-1H-pyrazol-4-yl)-1,3,4-thiadiazole] | >5 | > 100 | > 100 | >7.14 | > 70.8 | > 70 | > 70 | > 500 | 328 to 330
6 | Nc1nnc(-c2cnn(-c3ccc(F)cc3)c2)s1 [1g, 5-Amino-2-(1-(4-fluorophenyl)-1H-pyrazol-4-yl)-1,3,4-thiadiazole] | >5 | > 100 | > 100 | >7.14 | > 70.8 | > 70 | > 70 | > 500 | 335 to 337
7 | Nc1nnc(-c2cnn(-c3cccc(F)c3)c2)s1 [1h, 5-Amino-2-(1-(3-fluorophenyl)-1H-pyrazol-4-yl)-1,3,4-thiadiazole] | >5 | > 100 | > 100 | >7.86 | 67.6 | 66.8 ± 3.37 | > 70 | > 500 | 302 to 303
8 | Nc1nnc(-c2cnn(-c3ccc(Br)cc3)c2)s1 [1i, 5-Amino-2-(1-(4-bromophenyl)-1H-pyrazol-4-yl)-1,3,4-thiadiazole] | >5 | > 100 | > 100 | >17.53 | 28.2 | 28.4 ± 1.77 | > 70 | > 500 | 340 to 341
9 | Nc1nnc(-c2cnn(-c3cccc(Br)c3)c2)s1 [1j, 5-Amino-2-(1-(3-bromophenyl)-1H-pyrazol-4-yl)-1,3,4-thiadiazole] | >5 | > 100 | > 100 | >7.14 | > 70.8 | > 70 | > 70 | > 500 | 301 to 303
10 | Nc1nnc(-c2cnn(-c3ccc([N+](=O)[O-])cc3)c2)s1 [1k, 5-Amino-2-(1-(4-nitrophenyl)-1H-pyrazol-4-yl)-1,3,4-thiadiazole] | >5 | > 100 | > 100 | >8.16 | 58.9 | 58.3 ± 12.8 | > 70 | > 500 | 331 to 333
11 | COc1ccc(-n2cc(-c3nnc(N)s3)cn2)cc1 [1l, 5-Amino-2-(1-(4-methoxyphenyl)-1H-pyrazol-4-yl)-1,3,4-thiadiazole] | >9.43 | 53 ± 4.44 | > 100 | >19.08 | 24.5 | 24.5 ± 4.21 | > 70 | > 500 | 298 to 300
12 | Nc1nnc(-c2cnn(-c3ccccc3)c2N)s1 [2a, 5-Amino-2-(5-amino-1-phenyl-1H-pyrazol-4-yl)-1,3,4-thiadiazole] | >5 | > 100 | > 100 | >7.14 | > 70.8 | > 70 | > 70 | > 500 | 131 to 132
13 | Nc1nnc(-c2cnn(-c3cccc(Cl)c3)c2N)s1 [2b, 5-Amino-2-(5-amino-1-(3-chlorophenyl)-1H-pyrazol-4-yl)-1,3,4-thiadiazole] | >5 | > 100 | > 100 | >7.14 | > 70.8 | > 70 | > 70 | > 500 | 289 to 291
14 | Nc1nnc(-c2cnn(-c3cc(Cl)cc(Cl)c3)c2N)s1 [2d, 5-Amino-2-(5-amino-1-(3,5-dichlorophenyl)-1H-pyrazol-4-yl)-1,3,4-thiadiazole] | >5 | > 100 | > 100 | >7.14 | > 70.8 | > 70 | > 70 | > 500 | 299 to 300
15 | Nc1nnc(-c2cnn(-c3ccc(Cl)c(Cl)c3)c2N)s1 [2e, 5-Amino-2-(5-amino-1-(3,4-dichlorophenyl)-1H-pyrazol-4-yl)-1,3,4-thiadiazole] | >6.88 | 72.6 ± 6.76 | > 100 | >13.73 | 33.9 | 33.6 ± 2.16 | 58.8 ± 8.26 | > 500 | 258 to 260
16 | Nc1nnc(-c2cnn(-c3ccc(Cl)cc3)c2N)s1 [2f, 5-Amino-2-(5-amino-1-(4-chlorophenyl)-1H-pyrazol-4-yl)-1,3,4-thiadiazole] | >5 | > 100 | > 100 | >7.14 | > 70.8 | > 70 | > 70 | > 500 | 238 to 240
